Assay results published in patent US11613522B2, “Herbicidally active 3-phenylisoxazoline-5-carboxamides of tetrahydro- and dihydrofurancarboxamides” (BAYER AKTIENGESELLSCHAFT, priority 2017, dated 2023).

Experiments:
Assay type in all cases: in vivo
Alopecurus myosuroides [1] = assay: Pre-emergence herbicidal activity against ALOMY; conditions: Alopecurus myosuroides, 504 h, dosage 80 g/ha, scored visually after about 3 weeks vs untreated controls
Source text: (§1) 1. Pre-emergence herbicidal action against harmful plants and crop plant compatibility Seeds of monocotyledonous and dicotyledonous weed plants and crop plants are placed in plastic or wood fiber pots and covered with soil. The compounds of the invention, formulated in the form of wettable powders (WP) or as emulsion concentrates (EC), are then applied onto the surface of the covering soil as aqueous suspension or emulsion with addition of 0.5% additive at a water application rate of 600 l/ha (converted). After the treatment, the pots are placed in a greenhouse and kept under good growth conditions for the trial plants. After about 3 weeks, the effect of the preparations is scored visually in comparison with untreated controls as percentages. For example, 100% activity=the plants have died, 0% activity=like control plants. [table]

Avena fatua [2] = assay: Pre-emergence herbicidal activity against AVEFA; conditions: Avena fatua, 504 h, dosage 80 g/ha, scored visually after about 3 weeks vs untreated controls, read-out: Pre-emergence herbicidal activity in % against AVEVA (AVEFA)
Source text: as §1

Echinochloa crus-galli [3] = assay: Pre-emergence herbicidal activity against ECHCG; conditions: Echinochloa crus-galli, 504 h, dosage 80 g/ha, scored visually after about 3 weeks vs untreated controls
Source text: as §1

Amaranthus retroflexus [4] = assay: Pre-emergence herbicidal activity against AMARE; conditions: Amaranthus retroflexus, 504 h, dosage 80 g/ha, scored visually after about 3 weeks vs untreated controls
Source text: as §1

Stellaria media [5] = assay: Pre-emergence herbicidal activity against STEME; conditions: Stellaria media, 504 h, dosage 80 g/ha, scored visually after about 3 weeks vs untreated controls
Source text: as §1

Veronica persica [6] = assay: Pre-emergence herbicidal activity against VERPE; conditions: Veronica persica, 504 h, dosage 80 g/ha
Source text: as §1

Alopecurus myosuroides [7] = assay: Post-emergence herbicidal activity against ALOMY; conditions: Alopecurus myosuroides, 504 h, dosage 320 g/ha, rated visually after about 3 weeks
Experimental: (§2) [table] Seeds of monocotyledonous and dicotyledonous weeds and crop plants are placed in sandy loam in plastic or wood-fiber pots, covered with soil and cultivated in a greenhouse under controlled growth conditions. 2 to 3 weeks after sowing, the test plants are treated at the one-leaf stage. The compounds of the invention, formulated in the form of wettable powders (WP) or as emulsion concentrates (EC), are then sprayed onto the green parts of the plants as aqueous suspension or emulsion with addition of 0.5% additive at a water application rate of 600 l/ha (converted). After the test plants had been kept in the greenhouse under optimum growth conditions for about 3 weeks, the activity of the preparations is rated visually in comparison to untreated controls. For example, 100% activity=the plants have died, 0% activity=like control plants.

Avena fatua [8] = assay: Post-emergence herbicidal activity against AVEFA; conditions: Avena fatua, 504 h, dosage 320 g/ha, rated visually after about 3 weeks
Experimental: as §2

Echinochloa crus-galli [9] = assay: Post-emergence herbicidal activity against ECHCG; conditions: Echinochloa crus-galli, 504 h, dosage 320 g/ha, rated visually after about 3 weeks
Experimental: as §2

Setaria viridis [10] = assay: Post-emergence herbicidal activity against SETVI; conditions: Setaria viridis, 504 h, dosage 320 g/ha, rated visually after about 3 weeks
Experimental: as §2

Abutilon theophrasti = assay: Post-emergence herbicidal activity against ABUTH; conditions: Abutilon theophrasti, 504 h, dosage 320 g/ha, rated visually after about 3 weeks
Experimental: as §2

Pharbitis purpurea = assay: Post-emergence herbicidal activity against PHBPU; conditions: Ipomoea purpurea, 504 h, dosage 320 g/ha, rated visually after about 3 weeks
Experimental: as §2

Stellaria media [11] = assay: Post-emergence herbicidal activity against STEME; conditions: Stellaria media, 504 h, dosage 320 g/ha, rated visually after about 3 weeks
Experimental: as §2

Viola tricolor [12] = assay: Post-emergence herbicidal activity against VIOTR; conditions: Viola tricolor, 504 h, dosage 320 g/ha, rated visually after about 3 weeks
Experimental: as §2

Veronica persica [13] = assay: Post-emergence herbicidal activity against VERPE; conditions: Veronica persica, 504 h, dosage 320 g/ha, rated visually after about 3 weeks
Experimental: as §2

[14] = Pre-emergence herbicidal action against harmful plants (summary of the tables); conditions: 504 h, application rate of 0.08 kg of active substance or less per hectare, read-out: herbicidal action, pre-emergence treatment (very good activity)
Source text: as §1, with “plants.” for “plants. [table]”
As shown by the results, compounds according to the invention such as, for example, the compounds No. I-02 and other compounds from the tables (I-05, I-10, I-11, I-12, I-13, I-14, I-15, I-16, I-17, I-18, I-19, I-20, I-21, I-22, I-23, I-24, I-25, I-26, I-27, I-28, I-29) have, when used for pre-emergence treatment, very good activity (80% to 100% herbicidal action) against harmful plants such as Abutilon theophrasti, Alopecurus myosuroides, Amaranthus retroflexus, Avena fatua, Cyperus esculentus, Echinochloa crus-galli, Hordeum murinum, Lolium rigidum, Pharbitis purpurea, Polygonum convolvulus, Setaria viridis, Stellaria media, Veronica persica and Viola tricolor at an application rate of 0.08 kg of active substance or less per hectare.

Lolium rigidum [15] = assay: Pre-emergence herbicidal activity against LOLRI; conditions: Lolium rigidum, 504 h, dosage 80 g/ha, scored visually after about 3 weeks vs untreated controls
Source text: as §1

Setaria viridis [16] = assay: Pre-emergence herbicidal activity against SETVI; conditions: Setaria viridis, 504 h, dosage 80 g/ha, scored visually after about 3 weeks vs untreated controls
Source text: as §1

Polygonum convolvulus [17] = assay: Pre-emergence herbicidal activity against POLCO; conditions: Fallopia convolvulus, 504 h, dosage 80 g/ha, scored visually after about 3 weeks vs untreated controls
Source text: as §1

Viola tricolor [18] = assay: Pre-emergence herbicidal activity against VIOTR; conditions: Viola tricolor, 504 h, dosage 80 g/ha, scored visually after about 3 weeks vs untreated controls
Source text: as §1

Hordeum murinum [19] = assay: Pre-emergence herbicidal activity against HORMU; conditions: Hordeum murinum, 504 h, dosage 80 g/ha
Source text: as §1

Lolium rigidum [20] = assay: Post-emergence herbicidal activity against LOLRI; conditions: Lolium rigidum, 504 h, dosage 320 g/ha, rated visually after about 3 weeks
Experimental: as §2

Amaranthus retroflexus [21] = assay: Post-emergence herbicidal activity against AMARE; conditions: Amaranthus retroflexus, 504 h, dosage 320 g/ha, rated visually after about 3 weeks
Experimental: as §2

Polygonum convolvulus [22] = assay: Post-emergence herbicidal activity against POLCO; conditions: Fallopia convolvulus, 504 h, dosage 320 g/ha, rated visually after about 3 weeks
Experimental: as §2

Hordeum murinum [23] = assay: Post-emergence herbicidal activity against HORMU; conditions: Hordeum murinum, 504 h, dosage 320 g/ha, rated visually after about 3 weeks
Experimental: as §2

Row | Compound | pest or weed control at 80 g/ha (Alopecurus myosuroides [1]) | pest or weed control at 80 g/ha (Avena fatua [2]) | pest or weed control at 80 g/ha (Echinochloa crus-galli [3]) | pest or weed control at 80 g/ha (Amaranthus retroflexus [4]) | pest or weed control at 80 g/ha (Stellaria media [5]) | pest or weed control at 320 g/ha (Alopecurus myosuroides [7]) | pest or weed control at 320 g/ha (Avena fatua [8]) | pest or weed control at 320 g/ha (Echinochloa crus-galli [9]) | pest or weed control at 320 g/ha (Setaria viridis [10]) | pest or weed control at 320 g/ha (Abutilon theophrasti) | pest or weed control at 320 g/ha (Pharbitis purpurea) | pest or weed control at 320 g/ha (Stellaria media [11]) | pest or weed control at 320 g/ha (Viola tricolor [12]) | pest or weed control at 320 g/ha (Veronica persica [13]) | pest or weed control at 80 g/ha [14] | pest or weed control at 80 g/ha (Lolium rigidum [15]) | pest or weed control at 80 g/ha (Setaria viridis [16]) | pest or weed control at 80 g/ha (Polygonum convolvulus [17]) | pest or weed control at 80 g/ha (Viola tricolor [18]) | pest or weed control at 80 g/ha (Hordeum murinum [19]) | other results
1 | C=CC1(C(=O)N[C@@H]2CO[C@H](C(=O)NC)C2)CC(c2cc(F)cc(F)c2)=NO1 (relative stereo) [Example I-02, 3-(3,5-difluorophenyl)-N-[cis-5-(methylcarbamoyl)tetrahydrofuran-3-yl]-5-vinyl-4H-isoxazole-5-carboxamide] | 90% | 100% | 100% | 100% | 100% | 100% | 90% | 80% | 90% | 80% | 90% | 90% | 80% | 80% | 80 to 100% | – | – | – | – | – | pest or weed control at 80 g/ha (Veronica persica [6]): 90%
2 | C=C[C@]1(C(=O)N[C@H]2CO[C@@H](C(=O)NNC(=O)OC(C)(C)C)C2)CC(c2cc(F)cc(F)c2)=NO1 (mixture of isomers) [Example I-19, tert-butyl N-[[cis-4-[[(5S)-3-(3,5-difluorophenyl)-5-vinyl-4H-isoxazole-5-carbonyl]amino]tetrahydrofuran-2-carbonyl]amino]carbamate] | – | 90% | 80% | – | 90% | 90% | 90% | 90% | 90% | 90% | 90% | 90% | 90% | 80% | 80 to 100% | 100% | 90% | 90% | 80% | 100% | pest or weed control at 320 g/ha (Lolium rigidum [20]): 90%; pest or weed control at 320 g/ha (Amaranthus retroflexus [21]): 90%; pest or weed control at 320 g/ha (Polygonum convolvulus [22]): 90%; pest or weed control at 320 g/ha (Hordeum murinum [23]): 90%
3 | CNC(=O)[C@@H]1C[C@H](NC(=O)C2(C)CC(c3cc(F)cc(F)c3)=NO2)CO1 (relative stereo) [Example I-05, 3-(3,5-difluorophenyl)-5-methyl-N-[cis-5-(methylcarbamoyl)tetrahydrofuran-3-yl]-4H-isoxazole-5-carboxamide] | – | 100% | – | – | 80% | 90% | 80% | 90% | 80% | 80% | 80% | 80% | 80% | 80% | 80 to 100% | – | 90% | 90% | 100% | – | pest or weed control at 320 g/ha (Amaranthus retroflexus [21]): 80%; pest or weed control at 320 g/ha (Polygonum convolvulus [22]): 80%
4 | CONC(=O)[C@@H]1C[C@H](NC(=O)C2(C)CC(c3cccc(F)c3)=NO2)CO1 (relative stereo) [Example I-10, 3-(3-fluorophenyl)-N-[cis-5-(methoxycarbamoyl)tetrahydrofuran-3-yl]-5-methyl-4H-isoxazole-5-carboxamide] | 100% | 80% | 80% | 90% | 90% | 100% | 90% | 90% | 90% | – | 90% | 80% | – | 80% | 80 to 100% | 100% | 90% | 90% | – | 100% | pest or weed control at 320 g/ha (Lolium rigidum [20]): 90%; pest or weed control at 320 g/ha (Amaranthus retroflexus [21]): 80%; pest or weed control at 320 g/ha (Hordeum murinum [23]): 90%
5 | C=C[C@]1(C(=O)N[C@@H]2CO[C@H](C(=O)NN(C)C)C2)CC(c2cc(F)cc(F)c2)=NO1 (mixture of isomers) [Example I-15, (5S)-3-(3,5-difluorophenyl)-N-[cis-5-(dimethylaminocarbamoyl)tetrahydrofuran-3-yl]-5-vinyl-4H-isoxazole-5-carboxamide] | 100% | 90% | 90% | 100% | 100% | 100% | 100% | 90% | 80% | 80% | 80% | 90% | 80% | 80% | 80 to 100% | 100% | 100% | 100% | 100% | 90% | pest or weed control at 80 g/ha (Veronica persica [6]): 100%; pest or weed control at 320 g/ha (Lolium rigidum [20]): 90%; pest or weed control at 320 g/ha (Polygonum convolvulus [22]): 90%; pest or weed control at 320 g/ha (Hordeum murinum [23]): 90%
